Test results reported in patent US20040110802A1, “Antibacterial benzoic acid derivatives” (priority 2002, published 2004).
In brackets after ≈: the same amount, converted by molar mass.

The compounds below were run on SAUR 9218 (assay: MIC Test Method, standard agar dilution). Details: agar dilution, Mueller Hinton agar, incubated overnight at 35° C.; lowest concentration that inhibits visible growth; read-out: SAUR 9218 MIC.
Type: cell-based
Procedure, shortened: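 MIC (μg/ml) was read as the lowest drug level without visible growth of SAUR 9218 after overnight incubation at 35 °C. Inocula of about 10^4 to 10^5 cells per spot were applied to Mueller Hinton agar containing 2-fold serial compound dilutions.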

| MIC | Compound |
| --- | --- |
| 2 µg/mL (≈ 4.78 µM) | N#Cc1ccc(NC(=O)c2cc3cccc(NC(=O)C4CCOC4)c3[nH]2)c(C(=O)O)c1 (stereo not shown) |
| 128 µg/mL (≈ 255 µM) | Cc1sc(C(=O)Nc2ccc(C#N)cc2C(=O)O)cc1S(=O)(=O)N1CCCC1CN1CCCC1 (stereo not shown) |
| 0.5 µg/mL (≈ 1.33 µM) | COC1CCn2c(C(=O)Nc3ccc(C#N)cc3C(=O)O)cc3cccc1c32 (stereo not shown) |
| > 128 µg/mL | O=C(Nc1ccc(Br)cc1C(=O)O)c1csc(S(=O)(=O)N2CC3CC2CN3Cc2ccccc2)c1 (stereo not shown) |
